System: PC-12
Test: Neuroprotective activity against serum-deprivation-induced damage in rat PC12 cells assessed as survival rate at 10 uM after 48 hrs by MTT assay relative to control
Assay type: functional
Settings: PC-12, 48 h, read-out: Survival

Row | SMILES | viability at 10 µM [%]
1 | CC(C)=CCC/C(C)=C/[C@H]1C=C(CO)[C@@H]2CC[C@]3([C@H](CCCO)/C(=C(/C)C=O)CC[C@]3(C)O)[C@@H]2O1 | 63.8
2 | CC(C)=CCC/C(=C\[C@H]1C=C(CO)[C@@H]2CC[C@]3([C@H](CCCO)/C(=C(\C)C=O)CC[C@]3(C)O)[C@@H]2O1)CO | 50.9
3 | CC(C)=CCC/C(=C\[C@H]1C=C(CO)[C@@H]2CC[C@]3([C@H](CCCO)/C(=C(/C)C=O)CC[C@]3(C)O)[C@@H]2O1)CO | 54.1
